Bridges are numbered along the chain shown (N, C = ends). Where no end group is shown, it is not given here.

The test deals with skin cells. Nature of the test: Topical administration to SKH-1 hairless mice, skin cell proliferation by ^3H-thymidine incorporation. The format is in vivo. To be noted: 1 μg, 10 μg or 50 μg once a day, 7 days, analog given with Novasome, compared with hPTH-(1-34) and untreated control (FIG. 6). On the procedure: FIG. 6 is a histogram showing the effects of no treatment (Control) or of topical administration of 1 μg, 10 μg, or 50 μg of hPTH-(1-34) (1-34) or [Leu^27]cyclo(Glu^22-Lys^26)-hPTH-(1-31)-NH2 (c1-c31) to SKH-1 mice on the proliferation of skin cells, as measured by ^3H-thymidine incorporation (counts per minute/μg protein) in SKH-1 mice after 7 days of administration.
SKH-1 hairless mice were administered the human parathyroid hormone hPTH analog [Leu^27]cyclo(Glu^22-Lys^26)-hPTH-(1-31)-NH2 with Novasome (a liposomal formulation available, for example, from IGI, Inc., Buena, N.J.) or hPTH-(1-34) at dosages of 1 μg, 10 μg, or 50 μg once a day, or were left untreated (control). On day 7, the mice were injected twice with ^3H-thymidine, and on day 8, the mice were injected with ^3H-thymidine and bromodeoxyuridine (1.5 mg/mouse) and sacrificed within 3 hours. ^3H-thymidine incorporation was then assessed, using standard methods. The results of this study are shown in FIG. 6, which is a histogram showing the effects of no treatment (Control) or of topical administration of 1 μg, 10 μg, or 50 μg of hPTH-(1-34) (1-34) or [Leu^27]cyclo(Glu^22-Lys^26)-hPTH-(1-31)-NH2 (c1-c31) on proliferation of skin cells, as measured by ^3H-thymidine incorporation (counts per minute/μg protein) in SKH-1 mice. […]

On to “[Leu^27]cyclo(Glu^22-Lys^26)-hPTH-(1-31)-NH2 (SVSEIQLMHNLGKHLNSMERVEWLRKLLQDV-NH2; lactam 22-26; N-terminus assumed; SMILES CC[C@H](C)[C@H](NC(=O)[C@H](CCC(=O)O)NC(=O)[C@H](CO)NC(=O)[C@@H](NC(=O)[C@@H](N)CO)C(C)C)C(=O)N[C@@H](CCC(N)=O)C(=O)N[C@@H](CC(C)C)C(=O)N[C@@H](CCSC)C(=O)N[C@@H](Cc1c[nH]cn1)C(=O)N[C@@H](CC(N)=O)C(=O)N[C@@H](CC(C)C)C(=O)NCC(=O)N[C@@H](CCCCN)C(=O)N[C@@H](Cc1c[nH]cn1)C(=O)N[C@@H](CC(C)C)C(=O)N[C@@H](CC(N)=O)C(=O)N[C@@H](CO)C(=O)N[C@@H](CCSC)C(=O)N[C@@H](CCC(=O)O)C(=O)N[C@@H](CCCNC(=N)N)C(=O)N[C@H](C(=O)N[C@H]1CCC(=O)NCCCC[C@@H](C(=O)N[C@@H](CC(C)C)C(=O)N[C@@H](CC(C)C)C(=O)N[C@@H](CCC(N)=O)C(=O)N[C@@H](CC(=O)O)C(=O)N[C@H](C(N)=O)C(C)C)NC(=O)[C@H](CCCNC(=N)N)NC(=O)[C@H](CC(C)C)NC(=O)[C@H](Cc2c[nH]c3ccccc23)NC1=O)C(C)C)”, for which the “proliferation of skin cells, as measured by ^3H-thymidine incorporation” value is on record as “significantly more effective at inhibiting ^3H-thymidine incorporation than hPTH-(1-34)”. In the case of “cyclo(Lys^26-Asp^30) [Leu^27]-hPTH-(1-31)-NH2”, the “proliferation of skin cells, as measured by ^3H-thymidine incorporation” value is given as “Decreases Skin Cell Proliferation”.

The values are drawn from patent US20050065071A1, “Cyclic analogs of human parathyroid hormone for the treatment of conditions characterized by hyperproliferative skin cells” (National Research Council of Canada, priority 2003, published 2005).
